According to paper PMC8213057, “Targeting ALK2: An Open Science Approach to Developing Therapeutics for the Treatment of Diffuse Intrinsic Pontine Glioma” (Journal of Medicinal Chemistry, 2020):

Columns and labels:
TESK1 = TESK1 (Homo sapiens, UniProt Q15569); test: biochemical; details: read-out: % enzyme activity, 1 μM; Run 1, Run 2
BRSK1 = target: T1, BRSK1 (Homo sapiens, UniProt Q8TDC3); test: biochemical; details: read-out: % enzyme activity, 1 μM; Run 1, Run 2
T1 sequence (Q8TDC3 1-778): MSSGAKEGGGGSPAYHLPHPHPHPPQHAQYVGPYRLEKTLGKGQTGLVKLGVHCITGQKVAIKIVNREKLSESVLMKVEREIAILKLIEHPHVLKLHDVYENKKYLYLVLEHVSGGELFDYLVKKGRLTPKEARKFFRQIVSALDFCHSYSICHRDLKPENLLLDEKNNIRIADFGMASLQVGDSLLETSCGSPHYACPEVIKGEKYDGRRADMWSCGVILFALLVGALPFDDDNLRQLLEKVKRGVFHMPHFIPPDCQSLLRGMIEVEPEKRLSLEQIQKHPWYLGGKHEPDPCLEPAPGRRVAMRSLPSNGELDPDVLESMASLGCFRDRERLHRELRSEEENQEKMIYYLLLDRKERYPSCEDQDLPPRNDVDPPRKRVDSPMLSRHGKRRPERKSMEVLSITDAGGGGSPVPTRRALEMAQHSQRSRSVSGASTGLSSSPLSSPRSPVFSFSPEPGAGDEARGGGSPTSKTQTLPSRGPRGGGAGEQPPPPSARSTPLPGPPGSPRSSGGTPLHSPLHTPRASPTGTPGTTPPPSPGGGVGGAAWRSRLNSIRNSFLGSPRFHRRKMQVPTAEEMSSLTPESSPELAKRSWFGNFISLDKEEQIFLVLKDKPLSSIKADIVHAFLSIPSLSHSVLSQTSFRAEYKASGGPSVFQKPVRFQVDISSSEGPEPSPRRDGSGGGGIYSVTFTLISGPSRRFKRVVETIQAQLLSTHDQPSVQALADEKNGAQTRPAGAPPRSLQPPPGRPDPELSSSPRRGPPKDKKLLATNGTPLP

PEAK1 = PEAK1 (Homo sapiens, UniProt Q9H792); test: biochemical; details: read-out: % enzyme activity, 1 μM; Run 1, Run 2
Sequence of PEAK1 (Q9H792 whole entry): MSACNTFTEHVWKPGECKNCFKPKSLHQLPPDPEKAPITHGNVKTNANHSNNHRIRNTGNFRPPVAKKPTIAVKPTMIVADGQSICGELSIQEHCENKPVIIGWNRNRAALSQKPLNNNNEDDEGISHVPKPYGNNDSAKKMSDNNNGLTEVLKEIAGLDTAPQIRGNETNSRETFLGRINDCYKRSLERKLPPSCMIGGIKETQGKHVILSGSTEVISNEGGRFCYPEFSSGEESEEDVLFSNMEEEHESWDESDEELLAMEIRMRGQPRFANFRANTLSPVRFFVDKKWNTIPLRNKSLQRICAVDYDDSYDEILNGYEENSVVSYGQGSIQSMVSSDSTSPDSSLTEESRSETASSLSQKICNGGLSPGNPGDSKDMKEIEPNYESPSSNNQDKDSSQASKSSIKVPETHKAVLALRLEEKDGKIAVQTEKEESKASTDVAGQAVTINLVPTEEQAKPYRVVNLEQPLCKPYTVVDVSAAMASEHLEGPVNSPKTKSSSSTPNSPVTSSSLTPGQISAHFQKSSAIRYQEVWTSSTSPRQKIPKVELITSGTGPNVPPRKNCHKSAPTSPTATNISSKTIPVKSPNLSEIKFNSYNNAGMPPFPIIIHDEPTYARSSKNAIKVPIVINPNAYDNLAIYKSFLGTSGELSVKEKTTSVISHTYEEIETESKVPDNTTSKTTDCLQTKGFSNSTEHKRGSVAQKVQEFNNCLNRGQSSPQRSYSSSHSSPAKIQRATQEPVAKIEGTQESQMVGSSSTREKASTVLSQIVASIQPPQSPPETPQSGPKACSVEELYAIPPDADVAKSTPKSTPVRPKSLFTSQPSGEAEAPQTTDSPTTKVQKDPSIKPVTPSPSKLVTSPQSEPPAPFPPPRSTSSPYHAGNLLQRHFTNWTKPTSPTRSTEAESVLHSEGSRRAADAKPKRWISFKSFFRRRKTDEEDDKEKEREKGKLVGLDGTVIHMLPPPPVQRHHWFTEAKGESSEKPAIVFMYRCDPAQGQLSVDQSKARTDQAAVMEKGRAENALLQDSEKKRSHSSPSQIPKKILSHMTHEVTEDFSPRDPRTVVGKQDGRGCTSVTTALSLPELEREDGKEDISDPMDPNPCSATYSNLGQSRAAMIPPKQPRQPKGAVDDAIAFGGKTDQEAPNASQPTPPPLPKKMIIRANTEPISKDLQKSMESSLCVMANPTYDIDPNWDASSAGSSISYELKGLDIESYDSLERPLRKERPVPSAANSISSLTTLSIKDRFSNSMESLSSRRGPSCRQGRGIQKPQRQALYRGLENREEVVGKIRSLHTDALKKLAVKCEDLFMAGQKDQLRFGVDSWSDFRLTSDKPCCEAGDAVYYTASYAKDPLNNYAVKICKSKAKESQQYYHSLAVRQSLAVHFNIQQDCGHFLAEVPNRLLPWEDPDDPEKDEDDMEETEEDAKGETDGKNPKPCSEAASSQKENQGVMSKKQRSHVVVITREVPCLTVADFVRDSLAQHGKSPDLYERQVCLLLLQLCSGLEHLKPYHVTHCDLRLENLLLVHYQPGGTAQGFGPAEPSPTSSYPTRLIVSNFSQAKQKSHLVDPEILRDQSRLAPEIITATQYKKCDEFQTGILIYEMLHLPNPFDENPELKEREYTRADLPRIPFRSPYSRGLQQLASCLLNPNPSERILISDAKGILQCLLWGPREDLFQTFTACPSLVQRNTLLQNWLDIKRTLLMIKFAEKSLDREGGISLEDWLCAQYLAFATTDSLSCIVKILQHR

ROS/ROS1 = ROS/ROS1 (Homo sapiens, UniProt P08922); details: 1 μM; Run 1, Run 2
Sequence of ROS/ROS1 (P08922 28-2347): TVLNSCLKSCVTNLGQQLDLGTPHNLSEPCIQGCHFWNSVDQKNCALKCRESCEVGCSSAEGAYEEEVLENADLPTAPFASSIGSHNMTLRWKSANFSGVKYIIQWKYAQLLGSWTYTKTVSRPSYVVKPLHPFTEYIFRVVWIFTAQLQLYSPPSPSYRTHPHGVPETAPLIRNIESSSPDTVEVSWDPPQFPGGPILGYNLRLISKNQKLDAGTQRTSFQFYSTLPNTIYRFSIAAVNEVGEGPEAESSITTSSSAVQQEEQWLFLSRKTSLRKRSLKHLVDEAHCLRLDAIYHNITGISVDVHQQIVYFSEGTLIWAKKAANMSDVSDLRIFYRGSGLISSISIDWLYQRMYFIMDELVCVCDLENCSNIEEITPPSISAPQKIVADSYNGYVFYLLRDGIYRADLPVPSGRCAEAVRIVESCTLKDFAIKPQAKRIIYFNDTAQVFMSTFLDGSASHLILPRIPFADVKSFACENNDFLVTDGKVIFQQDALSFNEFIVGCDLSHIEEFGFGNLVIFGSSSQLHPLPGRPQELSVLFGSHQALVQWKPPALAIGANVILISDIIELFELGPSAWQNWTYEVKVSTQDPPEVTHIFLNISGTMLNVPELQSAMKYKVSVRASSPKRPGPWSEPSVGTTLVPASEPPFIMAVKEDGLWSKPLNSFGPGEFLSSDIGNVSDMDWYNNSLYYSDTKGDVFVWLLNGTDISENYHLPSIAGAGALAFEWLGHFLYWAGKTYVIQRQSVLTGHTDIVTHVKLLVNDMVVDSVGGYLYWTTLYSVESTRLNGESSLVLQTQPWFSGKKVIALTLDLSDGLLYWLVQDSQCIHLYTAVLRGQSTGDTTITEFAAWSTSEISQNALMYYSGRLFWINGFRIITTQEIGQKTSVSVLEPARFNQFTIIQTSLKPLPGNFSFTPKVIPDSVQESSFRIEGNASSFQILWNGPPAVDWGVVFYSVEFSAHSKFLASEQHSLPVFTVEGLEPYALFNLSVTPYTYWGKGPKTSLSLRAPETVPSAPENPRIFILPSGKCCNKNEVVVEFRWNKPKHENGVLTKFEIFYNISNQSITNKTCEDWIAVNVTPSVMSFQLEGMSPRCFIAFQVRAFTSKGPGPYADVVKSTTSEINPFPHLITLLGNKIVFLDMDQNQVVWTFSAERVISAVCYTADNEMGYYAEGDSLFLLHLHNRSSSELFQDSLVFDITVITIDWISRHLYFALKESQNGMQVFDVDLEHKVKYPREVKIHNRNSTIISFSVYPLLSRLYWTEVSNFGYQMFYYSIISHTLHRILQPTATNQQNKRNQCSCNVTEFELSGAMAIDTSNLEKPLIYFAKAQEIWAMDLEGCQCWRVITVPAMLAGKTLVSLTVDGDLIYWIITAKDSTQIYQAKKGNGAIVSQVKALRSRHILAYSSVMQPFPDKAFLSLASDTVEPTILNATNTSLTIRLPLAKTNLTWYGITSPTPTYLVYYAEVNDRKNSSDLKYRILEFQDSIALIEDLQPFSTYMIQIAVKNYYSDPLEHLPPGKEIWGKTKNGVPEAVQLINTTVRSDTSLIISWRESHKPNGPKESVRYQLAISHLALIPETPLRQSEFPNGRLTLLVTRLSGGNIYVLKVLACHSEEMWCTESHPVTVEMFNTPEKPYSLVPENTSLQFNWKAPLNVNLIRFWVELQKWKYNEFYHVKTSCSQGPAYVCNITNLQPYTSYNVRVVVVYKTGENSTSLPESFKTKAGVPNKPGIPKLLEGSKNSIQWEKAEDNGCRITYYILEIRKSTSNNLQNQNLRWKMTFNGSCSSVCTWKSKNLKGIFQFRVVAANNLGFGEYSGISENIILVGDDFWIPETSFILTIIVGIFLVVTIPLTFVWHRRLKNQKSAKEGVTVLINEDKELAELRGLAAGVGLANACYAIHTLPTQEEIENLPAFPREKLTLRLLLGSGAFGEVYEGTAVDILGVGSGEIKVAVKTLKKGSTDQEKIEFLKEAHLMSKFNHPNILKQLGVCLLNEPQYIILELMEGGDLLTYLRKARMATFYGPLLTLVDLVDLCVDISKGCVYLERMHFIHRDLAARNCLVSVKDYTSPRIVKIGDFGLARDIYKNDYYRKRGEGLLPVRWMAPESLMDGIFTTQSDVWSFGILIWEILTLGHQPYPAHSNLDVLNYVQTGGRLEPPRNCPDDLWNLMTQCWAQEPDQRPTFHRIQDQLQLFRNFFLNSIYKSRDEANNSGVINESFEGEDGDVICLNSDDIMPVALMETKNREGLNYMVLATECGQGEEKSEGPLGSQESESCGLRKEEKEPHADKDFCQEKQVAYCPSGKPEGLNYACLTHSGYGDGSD

SSTK/TSSK6 = SSTK/TSSK6 (Homo sapiens, UniProt Q9BXA6); test: biochemical; details: read-out: % enzyme activity, 1 μM; Run 1, Run 2
Sequence of SSTK/TSSK6 (Q9BXA6 whole entry): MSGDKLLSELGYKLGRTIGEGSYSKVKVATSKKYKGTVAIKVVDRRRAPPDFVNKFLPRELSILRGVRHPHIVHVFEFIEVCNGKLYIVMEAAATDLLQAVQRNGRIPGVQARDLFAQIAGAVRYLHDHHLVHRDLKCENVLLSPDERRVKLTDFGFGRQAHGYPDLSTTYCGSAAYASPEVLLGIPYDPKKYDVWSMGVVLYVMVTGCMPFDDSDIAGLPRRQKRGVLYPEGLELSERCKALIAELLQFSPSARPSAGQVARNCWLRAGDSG

CHK1 = target: T2, CHK1 (Homo sapiens, UniProt O14757); details: 1 μM; Run 1, Run 2
T2 sequence (O14757 1-476): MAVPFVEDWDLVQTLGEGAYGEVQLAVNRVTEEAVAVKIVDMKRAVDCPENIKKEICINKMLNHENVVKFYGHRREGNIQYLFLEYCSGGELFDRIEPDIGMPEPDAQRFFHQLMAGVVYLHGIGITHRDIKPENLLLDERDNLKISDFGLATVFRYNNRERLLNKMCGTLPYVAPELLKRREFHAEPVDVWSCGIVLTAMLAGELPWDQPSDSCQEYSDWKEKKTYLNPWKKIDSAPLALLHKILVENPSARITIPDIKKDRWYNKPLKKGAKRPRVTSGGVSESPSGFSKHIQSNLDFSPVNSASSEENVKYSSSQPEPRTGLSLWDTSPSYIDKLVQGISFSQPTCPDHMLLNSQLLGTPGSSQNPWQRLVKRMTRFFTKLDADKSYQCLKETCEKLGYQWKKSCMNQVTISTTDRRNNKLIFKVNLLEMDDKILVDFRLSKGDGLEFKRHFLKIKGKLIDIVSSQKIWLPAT

DMPK = target: T3, DMPK (Homo sapiens, UniProt Q09013); details: 1 μM; Run 1, Run 2
T3 sequence (Q09013 1-629): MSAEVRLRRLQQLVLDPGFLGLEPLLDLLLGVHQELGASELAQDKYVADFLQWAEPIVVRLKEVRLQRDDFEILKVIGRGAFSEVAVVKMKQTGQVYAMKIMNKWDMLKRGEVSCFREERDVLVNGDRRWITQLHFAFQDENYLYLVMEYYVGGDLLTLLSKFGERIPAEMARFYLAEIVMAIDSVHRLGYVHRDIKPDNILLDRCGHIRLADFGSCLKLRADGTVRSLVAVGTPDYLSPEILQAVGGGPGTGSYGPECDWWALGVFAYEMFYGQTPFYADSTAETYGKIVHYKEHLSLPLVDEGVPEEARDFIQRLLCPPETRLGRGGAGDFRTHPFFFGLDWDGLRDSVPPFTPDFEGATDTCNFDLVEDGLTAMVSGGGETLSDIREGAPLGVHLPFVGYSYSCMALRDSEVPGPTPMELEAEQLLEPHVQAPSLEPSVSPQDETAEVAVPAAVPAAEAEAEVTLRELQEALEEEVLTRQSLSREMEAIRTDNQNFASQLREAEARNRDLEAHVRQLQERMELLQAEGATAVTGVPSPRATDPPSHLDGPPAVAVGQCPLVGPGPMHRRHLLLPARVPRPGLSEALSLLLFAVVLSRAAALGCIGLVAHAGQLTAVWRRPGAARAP

FGFR3 = FGFR3 (Homo sapiens, UniProt P22607); test: biochemical; details: read-out: % enzyme activity, 1 μM; Run 1, Run 2
CDK2/cyclin A = CDK2/cyclin A (Homo sapiens, UniProt P24941); details: 1 μM; Run 1, Run 2
FLT1/VEGFR1 = FLT1/VEGFR1 (Homo sapiens, UniProt P17948); test: biochemical; details: read-out: % enzyme activity, 1 μM; Run 1, Run 2
DYRK2 = target: T4, DYRK2 (Homo sapiens, UniProt Q92630); test: biochemical; details: read-out: % enzyme activity, 1 μM; Run 1, Run 2
T4 sequence (Q92630 1-601): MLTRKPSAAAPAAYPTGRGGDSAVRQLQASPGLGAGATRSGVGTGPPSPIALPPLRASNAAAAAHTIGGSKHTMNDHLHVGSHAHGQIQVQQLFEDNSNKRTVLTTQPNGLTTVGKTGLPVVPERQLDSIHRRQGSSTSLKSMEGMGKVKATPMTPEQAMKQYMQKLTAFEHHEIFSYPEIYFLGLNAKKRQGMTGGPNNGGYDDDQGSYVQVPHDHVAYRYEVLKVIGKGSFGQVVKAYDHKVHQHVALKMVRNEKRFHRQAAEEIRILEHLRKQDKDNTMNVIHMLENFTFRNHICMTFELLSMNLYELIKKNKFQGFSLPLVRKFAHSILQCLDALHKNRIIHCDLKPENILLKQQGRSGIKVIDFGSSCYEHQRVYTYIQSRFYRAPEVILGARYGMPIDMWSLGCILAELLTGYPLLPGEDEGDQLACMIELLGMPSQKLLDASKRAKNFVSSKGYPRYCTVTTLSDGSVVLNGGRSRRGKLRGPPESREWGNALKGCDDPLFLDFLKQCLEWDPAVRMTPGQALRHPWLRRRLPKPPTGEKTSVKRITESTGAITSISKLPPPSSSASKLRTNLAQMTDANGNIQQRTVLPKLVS

Sequence of TESK1 (Q15569 whole entry): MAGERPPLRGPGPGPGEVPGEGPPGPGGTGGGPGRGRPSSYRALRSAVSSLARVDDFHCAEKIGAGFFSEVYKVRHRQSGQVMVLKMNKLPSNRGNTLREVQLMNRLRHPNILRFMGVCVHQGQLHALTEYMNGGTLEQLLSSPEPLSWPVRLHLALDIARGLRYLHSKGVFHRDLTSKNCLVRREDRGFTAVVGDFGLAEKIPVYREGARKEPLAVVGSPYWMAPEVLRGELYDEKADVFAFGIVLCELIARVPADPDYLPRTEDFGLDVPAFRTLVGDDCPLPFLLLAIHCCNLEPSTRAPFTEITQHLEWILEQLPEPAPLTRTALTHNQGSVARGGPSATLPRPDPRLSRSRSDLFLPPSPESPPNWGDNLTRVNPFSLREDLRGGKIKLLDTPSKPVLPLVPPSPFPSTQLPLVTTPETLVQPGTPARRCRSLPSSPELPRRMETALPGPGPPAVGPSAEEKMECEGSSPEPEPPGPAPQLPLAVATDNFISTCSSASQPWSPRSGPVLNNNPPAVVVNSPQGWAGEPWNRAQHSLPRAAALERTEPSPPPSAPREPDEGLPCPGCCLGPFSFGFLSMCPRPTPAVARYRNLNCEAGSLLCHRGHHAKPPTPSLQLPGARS

SMILES | remaining activity at 1 µM (TESK1) | remaining activity at 1 µM (BRSK1) | remaining activity at 1 µM (PEAK1) | % enzyme activity (ROS/ROS1) | remaining activity at 1 µM (SSTK/TSSK6) | % enzyme activity (CHK1) | % enzyme activity (DMPK) | remaining activity at 1 µM (FGFR3) | % enzyme activity (CDK2/cyclin A) | remaining activity at 1 µM (FLT1/VEGFR1) | remaining activity at 1 µM (DYRK2)
COc1cc(-c2cncc(-c3ccc(N4CCN(C)CC4)cc3)c2C)cc(F)c1C(N)=O [Compound 26a, 2-Fluoro-6-methoxy-4-(4-methyl-5-(4-(4-methylpiperazin-1-yl)phenyl)pyridin-3-yl)benzamide] | 114% | 84.7% | 99.1% | 86.47% | 110% | 94.26% | 108.75% | 101% | 97.95% | 107% | 96.3%
COc1cc(-c2cncc(-c3ccc(N4C[C@@H](C)N(C)[C@@H](C)C4)cc3)c2C)cc(F)c1C(N)=O [Compound 26c, 2-Fluoro-6-methoxy-4-(4-methyl-5-(4-((3R,5S)-3,4,5-trimethylpiperazin-1-yl)phenyl)pyridin-3-yl)benzamide] | 105% | 84% | 96.6% | 95.54% | 98.2% | 100.95% | 99.12% | 103% | 98.65% | 108% | 100%
